Measured values as given in patent publication US11684614B2, “Formulations of hydroxypyridonate actinide/lanthanide decorporation agents” (priority 2017, dated 2023).
Values joined by “and” are separate entries in the source; they are usually repeats but may differ in a detail not shown here. Equal values may be shown once.

Experiment: Repeated-treatment efficacy for removing an intravenous dose of 238Pu (excretion, tissue retention, clinical observations), female and male arms;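 as to % Recovered Dose ART: abdominal tissue remainder incl GI tract reproductive organs spleen bladder and fat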
Type: in vivo, Swiss-Webster mice
Conditions: male animals, listed as 3,4,3-LI(1,2-HOPO); for % Recovered Dose Urine per Day, Day 3 / % Recovered Dose Urine per Day, Day 4 / % Recovered Dose Urine per Day, Day 5 / % Recovered Dose Urine per Day, Day 6 / % Recovered Dose Urine per Day, Day 7 / % Recovered Dose Urine per Day, Day 2 / % Recovered Dose Urine per Day, Day 1: Day 7 necropsy
Description: The objective of this study was to characterize the efficacy of 3,4,3-L1(1,2-HOPO) at enhancing elimination from an internal plutonium burden in female and male Swiss-Webster mice administered a soluble citrate complex of ^238Pu and treated multiple times, starting at 24 hours after the exposure. Efficacy was evaluated by comparing the tissue contents, urinary and fecal excretions of ^238Pu in treated animals versus untreated animals.
The medical countermeasure 3,4,3-L1(1,2-HOPO) was administered parenterally (ip) or orally (po) via consecutive injections or gavages (six daily or twelve twice daily) starting at 24 hours post contamination at the following four selected doses: 30 μmol/kg ip, 150 μmol/kg po, 300 μmol/kg po, and 600 μmol/kg po (equivalent to respective approximate human doses range of […], using the accepted conversion system of mouse doses into human equivalent doses—HED—based on body surface area). Oral doses also included the permeability enhancer selected during formulation development work.
• Challenge isotope: ^238Pu • Challenge dose: 25 nCi (i.e., approximately 0.8 μCi/kg) • Route of contamination: Intravenous (iv) tail-vein • Route of treatment: Intraperitoneal Injection (ip) or Oral (po) • Frequency of treatment: Multiple (once- or twice-daily for 6 days) doses, starting 24 hr postcontamination • Treatment dose calculation: Dose calculations (mg/kg or μmol/kg) for the decorporation agent were based on the individual body weight measured after contamination. • Study Duration: 11 days, in-life
c. […] Test article and control dose formulations were prepared within 1 day of dose administration, by weighing out the appropriate amount of test article, dispersing in vehicle. For ip solutions, the test article was used alone, while for oral suspensions, a mixture of test article and excipient (90:10, w:w) was used. The pH was adjusted to 7.0-7.4 for ip administration and 5.0-5.5 for oral administration with sterile NaOH. Dose formulations were prepared at room temperature and filter-sterilized. • Storage: 2-8° C.; refrigerated; protected from light. • Characterization: The concentration of each test article formulation was verified by high-performance liquid chromatography-mass spectrometry. • Test Article Handling: Test, reference, and control article formulations were handled with the use of eye protection, gloves, and a protective laboratory coat. • Correct Dose Assurance: The test article was weighed with calibrated balances. The administration of each dose formulation was properly documented, and the amount administered to each animal recorded.
e. Experimental Procedures (In-Life Evaluations and Euthanasia) • Contamination: Single administration by intravenous (iv) tail-vein injection (0.2 mL injection volume) under isoflurane anesthesia. Three standard 0.2 mL injections were performed into polyethylene bottles and pre-loaded with aliquots of concentrated nitric acid on each injection day. Six female and six male mice were culled for necropsy 1 hr post-contamination and were used as standards. A11 standards were processed and counted together with the final samples to allow verification of the contamination dose. • Dose Administration: Single administration by intraperitoneal injection (ip) or oral gavage (po) under isoflurane anesthesia. • Mortality/Morbidity: Assessed at least once daily. • Clinical Observations: Recorded once daily (4 hr post-dose on day of treatment), or more often as clinical signs warranted. […]

O=C(NCCCN(CCCCN(CCCNC(=O)c1cccc(=O)n1O)C(=O)c1cccc(=O)n1O)C(=O)c1cccc(=O)n1O)c1cccc(=O)n1O [3,4,3-L1(1,2-HOPO)]
% Recovered Dose Urine per Day, Day 3 (animal group B): 0.61% and 1.15% and 1.12% and 1.18% | % Recovered Dose Urine per Day, Day 4 (animal group B): 1.30% and 0.41% and 0.54% and 0.89% | % Recovered Dose Urine per Day, Day 5 (animal group B): 0.61% and 0.58% and 0.10% and 0.65% | % Recovered Dose Urine per Day, Day 6 (animal group B): 0.18% and 0.64% and 0.10% | % Recovered Dose Urine per Day, Day 7 (animal group B): 0.17% and 0.37% and 0.28% and 0.50% | % Recovered Dose Urine per Day, Day 2 (animal group C): 1.72% and 4.28% and 3.19% and 0.38% | % Recovered Dose Urine per Day, Day 3 (animal group C): 0.95% and 1.32% and 0.98% and 0.50% | % Recovered Dose Urine per Day, Day 4 (animal group C): 0.59% and 1.17% and 0.68% and 0.55% | % Recovered Dose Urine per Day, Day 5 (animal group C): 0.35% and 0.65% and 0.33% and 0.19% | % Recovered Dose Urine per Day, Day 6 (animal group C): 0.19% and 0.70% and 0.52% and 0.07% | % Recovered Dose Urine per Day, Day 7 (animal group C): 0.10% and 0.94% and 0.45% and 0.11% | % Recovered Dose Urine per Day, Day 1 (animal group E): 21.72% and 14.01% and 18.66% and 17.47% | % Recovered Dose Urine per Day, Day 2 (animal group E): 3.64% and 2.67% and 3.46% and 2.04% | % Recovered Dose Urine per Day, Day 3 (animal group E): 1.49% and 0.90% and 1.61% and 1.12% | % Recovered Dose Urine per Day, Day 4 (animal group E): 0.67% and 0.69% and 0.59% and 0.53% | % Recovered Dose Urine per Day, Day 5 (animal group E): 0.39% and 0.62% and 0.41% | % Recovered Dose Urine per Day, Day 6 (animal group E): 0.49% and 0.53% and 0.46% and 0.31% | % Recovered Dose Urine per Day, Day 7 (animal group E): 0.21% and 0.41% and 0.23% and 0.27% | % Recovered Dose Urine per Day, Day 1 (animal group F): 19.31% and 19.65% and 13.22% and 25.18% | % Recovered Dose Urine per Day, Day 2 (animal group F): 3.62% and 1.94% and 2.38% and 2.07% | % Recovered Dose Urine per Day, Day 3 (animal group F): 1.51% and 1.15% and 1.06% | % Recovered Dose Urine per Day, Day 4 (animal group F): 0.98% and 0.55% and 0.74% and 0.83% | % Recovered Dose Urine per Day, Day 5 (animal group F): 0.45% and 0.42% and 0.47% and 0.41% | % Recovered Dose Urine per Day, Day 6 (animal group F): 0.45% and 0.47% and 0.36% and 0.29% | % Recovered Dose Urine per Day, Day 7 (animal group F): 0.55% and 0.40% and 0.72% and 0.26% | % Recovered Dose ART (Day-7 necropsy, animal group B): 2.16% and 1.57% and 1.65% and 1.32% | % Recovered Dose Combined Body (Day-7 necropsy, animal group B): 52.05% and 37.93% and 50.13% and 45.55% | % Recovered Dose Combined Excreta (Day-7 necropsy, animal group B): 47.95% and 62.07% and 49.87% and 54.45% | % Recovered Dose Kidney (Day-7 necropsy, animal group B): 0.29% and 0.25% and 0.26% and 0.45% | % Recovered Dose SKEL (Day-7 necropsy, animal group B): 15.55% and 20.00% and 23.24% and 20.71% | % Recovered Dose SOFT (Day-7 necropsy, animal group B): 3.27% and 3.41% and 2.67% and 3.29% | % Recovered Dose Total Feces (Day-7 necropsy, animal group B): 22.40% and 40.49% and 26.02% and 32.13% | % Recovered Dose Total Urine (Day-7 necropsy, animal group B): 25.54% and 21.58% and 23.85% and 22.32% | % Recovered Dose ART (Day-7 necropsy, animal group C): 1.42% and 1.55% and 1.84% and 1.39% | % Recovered Dose Combined Body (Day-7 necropsy, animal group C): 44.39% and 38.12% and 45.21% and 38.36% | % Recovered Dose Combined Excreta (Day-7 necropsy, animal group C): 55.61% and 61.88% and 54.79% and 61.64%
